# Counter-ions that a name gives are not always drawn. Like-named read-outs stand apart in the source and are kept apart here.
# How the values were obtained:
# [1] = test system: Mouse Colon 26 tumor cells; experiment: Xenograft model: Mouse Colon 26 carcinoma in nude mice; assay type: in vivo; conditions: Group 1: 5-FU 10 mg/kg IV once daily for five days alone; Day 27
# Procedure: Xenograft Model: Mouse Colon 26 Carcinoma
# Nude mice (Harlan Sprague Dawley, Inc., Indianapolis Ind.) were inoculated subcutaneously in the right flank with 0.1 mL of a 0.9% NaCl mixture containing a suspension of Mouse Colon 26 tumor cells (approx. 1×10^6 cells/mouse). Nine days following inoculation, the resulting tumors were measured using vernier calipers and tumor weight was calculated using the formula:
# [formula] wherein the width can be taken as the smallest diameter and the length the largest diameter of the tumor. Twenty-four mice having tumors in the range of 75-144 mg were then selected. The mice were randomized into three groups of eight mice each. The body weight of each animal was at taken when the mice were pair-matched on day one and recorded. Body weights were then taken twice weekly thereafter in conjunction with tumor measurements. See Britten C. D. et al., “Enhanced antitumor activity of 6-hydroxymethyl-acylfulvene in combination with irinotecan and 5-fluorouracil in the HT29 human colon tumor xenograft model.” Cancer Res 1999; 59:1049-53, incorporated by reference herein in its entirety.
# Beginning on Day 1, 5-fluorouracil (5-FU) was administered intravenously once daily for five days to each animal (Groups 1-3). […] The actual weight of each tumor was recorded.
# [2] = Solubility of salts in distilled deionized water (HPLC); assay type: physicochemical
# Procedure: The formulator can determine the solubility of the pharmaceutically acceptable salts of the disclosed inhibitors by any method desirable. The following is a non-limiting example of a procedure for evaluating the solubility of a salt of a disclosed inhibitor. A suspension of tert-butyl-{[1-(4-chlorobenzyl)-3-hydroxy-2-oxo-1,2-dihydropyridin-4-yl]methyl}-piperazine-1-carboxylate methanesulfonate (26.6 mg) in distilled deionized water (3.0 mL) is sonicated for 20 min with water bath temperature under 25° C. The suspension is filtered to remove any insoluble salt. The clear filtrate solution (200 μL) is diluted with distilled deionized water (800 μL) and subjected to HPLC analysis. The following are results for the pharmaceutically acceptable salts outlined in Table VII above.
Compound,Solubility [2],further results
"O=c1[nH]cc(F)c(=O)[nH]1 [Compound 5-FU, 5-fluorouracil]",–,Tumor Wgt. [1]: 1926.9 ± 284.9 mg
"CC(C)(C)OC(=O)N1CCN(Cc2ccn(Cc3ccc(Cl)cc3)c(=O)c2O)CC1 [hydrochloride, tert-butyl-{[1-(4-chlorobenzyl)-3-hydroxy-2-oxo-1,2-dihydropyridin-4-yl]methyl}-piperazine-1-carboxylate]",5900 µg/mL,–
"CC(C)(C)OC(=O)N1CCN(Cc2ccn(Cc3ccc(Cl)cc3)c(=O)c2O)CC1 [Compound A41, tert-Butyl-{[1-(4-chlorobenzyl)-3-hydroxy-2-oxo-1,2-dihydropyridin-4-yl]methyl}piperazine-1-carboxylate]",–,"Solubility ([2]; distilled deionized water, sonicated 20 min, bath under 25° C., filtrate by HPLC, listed as Free base): ~1 µg/mL"
"CC(C)(C)OC(=O)N1CCN(Cc2ccn(Cc3ccc(Cl)cc3)c(=O)c2O)CC1 [p-toluenesulfonate, tert-butyl-{[1-(4-chlorobenzyl)-3-hydroxy-2-oxo-1,2-dihydropyridin-4-yl]methyl}-piperazine-1-carboxylate]",2300 µg/mL,–

# — patent US8309537B2, “Compositions and methods for treating colitis” (Aerpio Therapeutics Inc., priority 2009, dated 2012)
